One experiment addresses T1, WT BM3 heme domain (Priestia megaterium, UniProt P14779).
T1 construct: The BM3 heme domain proteins (WT and the DM A82F/F87V variant) used in this study were expressed as described in our previous studies; made in house; host or cells: E. coli BL21 (DE3)
The experiment is described as follows: biochemical. It counts as binding, Bacillus megaterium. The note with it: for Delta Abs/Soret Peak: maximal peak-minus-trough value divided by P450 Soret peak value; for Soret Shift (final Soret wavelength at apparent saturation): starting wavelength 418 nm. From the text: (§1) This leads to dioxygen (O2) binding to heme iron and to the progression of the P450 catalytic cycle that leads to monooxygenation of the substrate. […] P450 UV-visible binding assays and other spectroscopic studies using azoles are often hindered by the low solubility of many of these drugs. […] The azoles used range widely in size and structure, and contain either an imidazole or a triazole functional group (or two triazole groups in the case of fluconazole). […] Spectral binding data were fitted using hyperbolic (Michaelis-Menten)[30] or tight-binding (Morrison)[31] equations, or by using the Hill function[32] in cases where there was a clear sigmoidal dependence of heme absorbance change on azole drug concentration.
(§2) Experiments were performed using a Cary 50 UV-Visible spectrophotometer (Agilent Technologies Ltd). WT and DM heme domains at concentrations of ~2–4 μM were used, and binding titrations were done by the addition of small (typically 0.2–0.4 μL) volumes of azole ligand stocks (1, 10 or 30 mM, to minimize amounts of solvent carrier used) to a 1 mL heme domain sample in a quartz cuvette. An extinction coefficient of 95 mM^−1 cm^−1 was used for the low-spin forms of the WT and DM heme domains. […] Azole drugs were obtained from Merck Chemicals (Nottingham, UK). All azole compounds used in these and other experiments done in this manuscript were sourced from Sigma Aldrich (Cambridge, UK).
(§3) Data were processed by the subtraction of the spectrum of each successive ligand-bound form (from a specific titration set) from the spectrum of the ligand-free enzyme. This produced a set of difference spectra (for each particular azole titration), from which wavelengths associated with the absorbance minimum (Amin) and maximum (Amax) were readily identified. For each titration point, an absorbance difference value was calculated as Amax minus Amin, using the same wavelength pair throughout an individual experiment. These values were then plotted against the relevant azole ligand concentrations used. […] Assays were done using 25 mM KPi (pH 7) at a constant temperature of 30 °C.

Experiment [1] concerns the target T2, BM3 A82F/F87V double mutant (DM) heme domain (Priestia megaterium, UniProt P14779, A83F/F88V).
T2 construct: The BM3 heme domain proteins (WT and the DM A82F/F87V variant) used in this study were expressed as described in our previous studies; made in house; host or cells: E. coli BL21 (DE3)
The experiment is described as follows: biochemical. It counts as binding, Bacillus megaterium. The note with it: for Delta Abs Peak (wavelength maximum of absorbance difference spectrum) / Delta Abs Trough (wavelength minimum of absorbance difference spectrum) / Delta Abs/Soret Peak / Soret Shift (final Soret wavelength at apparent saturation): DM BM3 heme domain; for Delta Abs/Soret Peak: maximal peak-minus-trough value divided by P450 Soret peak value; for Soret Shift (final Soret wavelength at apparent saturation): starting wavelength 418 nm.
From the text: as §1, §2, §3

For the next experiment, the system named is P450 BM3 (CYP102A1). Details: method as in PMID 10191269. The note with it: arachidonic acid as the substrate; cited from earlier work.
Setting [2] is: DM (A82F/F87V) BM3 heme domain, 25 mM KPi pH 7, 30 °C.

“Also recorded” adds a separate entry of the source. Where two headings read alike, the source gives them in different places.

T2 sequence (P14779 2-472 A83F/F88V): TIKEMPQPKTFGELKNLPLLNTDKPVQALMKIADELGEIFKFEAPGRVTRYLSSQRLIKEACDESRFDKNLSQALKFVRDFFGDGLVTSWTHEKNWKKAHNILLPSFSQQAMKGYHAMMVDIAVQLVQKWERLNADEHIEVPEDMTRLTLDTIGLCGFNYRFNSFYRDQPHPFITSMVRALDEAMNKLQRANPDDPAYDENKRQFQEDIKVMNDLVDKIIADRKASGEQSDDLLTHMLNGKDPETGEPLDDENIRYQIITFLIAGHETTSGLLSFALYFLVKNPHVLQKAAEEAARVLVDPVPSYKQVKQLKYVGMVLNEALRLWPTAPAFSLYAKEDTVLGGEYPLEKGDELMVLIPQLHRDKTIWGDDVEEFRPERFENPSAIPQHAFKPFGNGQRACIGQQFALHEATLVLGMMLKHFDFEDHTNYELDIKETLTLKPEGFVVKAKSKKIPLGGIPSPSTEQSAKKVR
T1 sequence (P14779 2-472): as the sequence (P14779 2-472 A83F/F88V) above, with F82A, V87F counted along it

The compound `CC(C)(C)C(=O)C(Oc1ccc(Cl)cc1)n1ccnc1` (stereo not drawn) [Climbazole] registered a Kd at WT BM3 heme domain of 1.52 ± 0.02 µM. Also, at WT BM3 heme domain (WT BM3 heme domain), the “Delta Abs Peak (wavelength maximum of absorbance difference spectrum)” value worked out at 433 nm, the “Delta Abs Trough (wavelength minimum of absorbance difference spectrum)” value came out at 413 nm, the “Delta Abs/Soret Peak” value is listed as 0.43 and the “Soret Shift (final Soret wavelength at apparent saturation)” value (from here on “Soret Shift”) is listed as 424 nm. In addition, in experiment [1], the “Delta Abs Peak (wavelength maximum of absorbance difference spectrum)” value is given as 430 nm, the “Delta Abs Trough (wavelength minimum of absorbance difference spectrum)” value was 408 nm, the “Delta Abs/Soret Peak” value was 0.50 and the “Soret Shift” value stood at 424 nm. In experiment [1] (setting [2]), the Kd stood at 320 ± 10 nM.

On WT BM3 heme domain, `Clc1ccc(CCC(Cn2ccnc2)Sc2c(Cl)cccc2Cl)cc1` (stereo not drawn) [Butoconazole nitrate] displayed a Kd of 3.8 ± 0.12 µM. Further, on WT BM3 heme domain (WT BM3 heme domain), the “Delta Abs Peak (wavelength maximum of absorbance difference spectrum)” value is listed as 434 nm, the “Delta Abs Trough (wavelength minimum of absorbance difference spectrum)” value amounted to 413 nm, the “Delta Abs/Soret Peak” value amounted to 0.35 and the “Soret Shift” value is 422 nm. Also, in experiment [1], the “Delta Abs Peak (wavelength maximum of absorbance difference spectrum)” value came out at 433 nm, the “Delta Abs Trough (wavelength minimum of absorbance difference spectrum)” value is on record as 413 nm, the “Delta Abs/Soret Peak” value came out at 0.47 and the “Soret Shift” value is on record as 424 nm. Further, the affinity in experiment [1] (setting [2]), expressed as Kd, was 470 ± 20 nM.

On to `C[C@@H](c1nc(-c2ccc(C#N)cc2)cs1)[C@](O)(Cn1cncn1)c1ccc(F)cc1F` [Ravuconazole], for which, on WT BM3 heme domain (WT BM3 heme domain), the “Soret spectral shift / heme absorbance change on titration (in words)” value is on record as “failed to induce a Soret spectral shift of sufficient extent to allow Kd determination; also recorded: no significant spectral shifts”. Besides, in experiment [1], the “Delta Abs Peak (wavelength maximum of absorbance difference spectrum)” value worked out at 434 nm, the “Delta Abs Trough (wavelength minimum of absorbance difference spectrum)” value is given as 413 nm, the “Delta Abs/Soret Peak” value came to 0.21 and the “Soret Shift” value worked out at 422 nm. The dissociation constant Kd in experiment [1] (setting [2]) was found to be 340 ± 20 nM.

Turning to `CCCCC/C=C\C/C=C\C/C=C\C/C=C\CCCC(=O)O` [arachidonic acid], the “catalytic rate for substrate oxidation” value in the experiment on P450 BM3 (CYP102A1) was ~ 285 s^−1.

In the case of `Clc1ccc(C(Cn2ccnc2)OCc2c(Cl)cccc2Cl)c(Cl)c1` (stereo not drawn) [Isoconazole nitrate], the Kd on WT BM3 heme domain is 12 ± 0.5 µM; in experiment [1] (setting [2]) it was 440 ± 20 nM. Further, the “Delta Abs Peak (wavelength maximum of absorbance difference spectrum)” value at WT BM3 heme domain (WT BM3 heme domain) is reported as 436 nm; in experiment [1], 435 nm. For the same compound, the “Delta Abs Trough (wavelength minimum of absorbance difference spectrum)” value (on WT BM3 heme domain (WT BM3 heme domain); in experiment [1]) was 415 nm in each case.

For the compound `Clc1ccc(C(Cn2ccnc2)OCc2ccsc2Cl)c(Cl)c1` (stereo not drawn) [Tioconazole], binding at WT BM3 heme domain (Kd, WT BM3 heme domain, 25 mM KPi pH 7, 30 °C, NB = no binding seen in UV-visible spectroscopic titrations) was put at a Kd of 24.5 ± 1.1 µM. For the same compound, at WT BM3 heme domain (WT BM3 heme domain), the “Delta Abs Peak (wavelength maximum of absorbance difference spectrum)” value amounted to 434 nm, the “Delta Abs Trough (wavelength minimum of absorbance difference spectrum)” value is on record as 414 nm, the “Delta Abs/Soret Peak” value was found to be 0.29 and the “Soret Shift” value is recorded as 422 nm. Further, in experiment [1], the “Delta Abs Peak (wavelength maximum of absorbance difference spectrum)” value was 434 nm, the “Delta Abs Trough (wavelength minimum of absorbance difference spectrum)” value is listed as 414 nm, the “Delta Abs/Soret Peak” value was 0.44 and the “Soret Shift” value stood at 423 nm. Also, the “Tighter binding to DM heme domain than to WT heme domain” value in experiment [1] (DM versus WT heme domain) is ~ 50 fold. In addition, in experiment [1] (setting [2]), binding was characterised by a dissociation constant (Kd) of 390 ± 30 nM.

Compound `c1ccc(-c2ccc(C(c3ccccc3)n3ccnc3)cc2)cc1` (stereo not drawn) [Bifonazole] came in with a Kd on WT BM3 heme domain of 3.54 ± 0.05 µM. In addition, at WT BM3 heme domain (WT BM3 heme domain), the “Delta Abs Peak (wavelength maximum of absorbance difference spectrum)” value stood at 434 nm, the “Delta Abs Trough (wavelength minimum of absorbance difference spectrum)” value is 413 nm, the “Delta Abs/Soret Peak” value turned out to be 0.43 and the “Soret Shift” value came out at 423 nm. Further, in experiment [1], the “Delta Abs Peak (wavelength maximum of absorbance difference spectrum)” value is listed as 436 nm, the “Delta Abs Trough (wavelength minimum of absorbance difference spectrum)” value was found to be 413 nm, the “Delta Abs/Soret Peak” value came out at 0.42 and the “Soret Shift” value came to 425 nm. The compound also yielded a Kd in experiment [1] (setting [2]) of 130 ± 50 nM. For the same compound, the Kd in experiment [1] (DM enzyme, Figure S1 legend, tight-binding (Morrison) fit) turned out to be 130 ± 20 nM.

Regarding `C[C@@H](c1ncncc1F)[C@](O)(Cn1cncn1)c1ccc(F)cc1F` [Voriconazole], the “Soret spectral shift / heme absorbance change on titration (in words)” value on WT BM3 heme domain (WT BM3 heme domain) is reported as “failed to induce a Soret spectral shift of sufficient extent to allow Kd determination”. In experiment [1], the “Delta Abs Peak (wavelength maximum of absorbance difference spectrum)” value is recorded as 435 nm, the “Delta Abs Trough (wavelength minimum of absorbance difference spectrum)” value is on record as 414 nm, the “Delta Abs/Soret Peak” value stood at 0.21 and the “Soret Shift” value worked out at 420 nm. In experiment [1] (setting [2]), this compound showed an equilibrium dissociation constant (Kd) of 1900 ± 130 nM.

`Clc1ccc(C(Cn2ccnc2)OCc2ccc(Sc3ccccc3)cc2)c(Cl)c1` (stereo not drawn) [Fenticonazole nitrate] showed a Kd on WT BM3 heme domain of 1.89 ± 0.05 µM. For the same compound, at WT BM3 heme domain (WT BM3 heme domain), the “Delta Abs Peak (wavelength maximum of absorbance difference spectrum)” value is listed as 434 nm, the “Delta Abs Trough (wavelength minimum of absorbance difference spectrum)” value is recorded as 415 nm, the “Delta Abs/Soret Peak” value is reported as 0.21 and the “Soret Shift” value is 419 nm. Besides, in experiment [1], the “Delta Abs Peak (wavelength maximum of absorbance difference spectrum)” value came to 434 nm, the “Delta Abs Trough (wavelength minimum of absorbance difference spectrum)” value is listed as 414 nm, the “Delta Abs/Soret Peak” value is reported as 0.44 and the “Soret Shift” value amounted to 424 nm. The Kd in experiment [1] (setting [2]) was 520 ± 30 nM.

As for `Clc1ccc(C(Cn2ccnc2)OCc2csc3c(Cl)cccc23)c(Cl)c1` (stereo not drawn) [Sertaconazole nitrate], the Kd at WT BM3 heme domain came to 2.44 ± 0.14 µM. On WT BM3 heme domain (WT BM3 heme domain), the “Delta Abs Peak (wavelength maximum of absorbance difference spectrum)” value is recorded as 439 nm, the “Delta Abs Trough (wavelength minimum of absorbance difference spectrum)” value amounted to 416 nm, the “Delta Abs/Soret Peak” value is listed as 0.08 and the “Soret Shift” value turned out to be 419 nm. Moreover, in experiment [1], the “Delta Abs Peak (wavelength maximum of absorbance difference spectrum)” value came out at 433 nm, the “Delta Abs Trough (wavelength minimum of absorbance difference spectrum)” value was determined as 413 nm, the “Delta Abs/Soret Peak” value is reported as 0.45 and the “Soret Shift” value was 423 nm. In addition, in experiment [1] (setting [2]), the Kd was 460 ± 10 nM.

Turning to `OC(Cn1cncn1)(Cn1cncn1)c1ccc(F)cc1F` [Fluconazole], the “Soret spectral shift / heme absorbance change on titration (in words)” value on WT BM3 heme domain (WT BM3 heme domain) was “failed to induce a Soret spectral shift of sufficient extent to allow Kd determination”. In experiment [1], the “Delta Abs Peak (wavelength maximum of absorbance difference spectrum)” value stood at 434 nm, the “Delta Abs Trough (wavelength minimum of absorbance difference spectrum)” value was determined as 414 nm, the “Delta Abs/Soret Peak” value stood at 0.19 and the “Soret Shift” value is reported as 421 nm. The compound further displayed a Kd in experiment [1] (setting [2]) of 2910 ± 200 nM.

For the compound `CCC(C)n1ncn(-c2ccc(N3CCN(c4ccc(OCC5COC(Cn6cncn6)(c6ccc(Cl)cc6Cl)O5)cc4)CC3)cc2)c1=O` (stereo not drawn) [Itraconazole], the “Soret spectral shift / heme absorbance change on titration (in words)” value at WT BM3 heme domain (WT BM3 heme domain) is “failed to induce a Soret spectral shift of sufficient extent to allow Kd determination; also recorded: no significant spectral shifts”. In experiment [1], the “Delta Abs Peak (wavelength maximum of absorbance difference spectrum)” value turned out to be 438 nm, the “Delta Abs Trough (wavelength minimum of absorbance difference spectrum)” value was determined as 414 nm, the “Delta Abs/Soret Peak” value came out at 0.16 and the “Soret Shift” value came out at 421 nm. In experiment [1] (setting [2]), this compound displayed a Kd of 50 ± 10 nM.

Take `CC[C@@H]([C@H](C)O)n1ncn(-c2ccc(N3CCN(c4ccc(OC[C@@H]5CO[C@@](Cn6cncn6)(c6ccc(F)cc6F)C5)cc4)CC3)cc2)c1=O` [Posaconazole]: the “Soret spectral shift / heme absorbance change on titration (in words)” value on WT BM3 heme domain (WT BM3 heme domain) was “failed to induce a Soret spectral shift of sufficient extent to allow Kd determination; also recorded: no significant spectral shifts”. In addition, in experiment [1], the “Delta Abs Peak (wavelength maximum of absorbance difference spectrum)” value was 430 nm, the “Delta Abs Trough (wavelength minimum of absorbance difference spectrum)” value turned out to be 395 nm, the “Delta Abs/Soret Peak” value was found to be 0.41 and the “Soret Shift” value was found to be 422 nm. In experiment [1] (setting [2]), this compound returned a Kd of 2690 ± 50 nM.

The values above are taken from PMC6367340, “Novel insights into P450 BM3 interactions with FDA-approved antifungal azole drugs” (Scientific Reports, 2019).
